Laboratory results published in the NIST ThermoML archive (doi:10.1021/je900757k).
Numbers after ± are expanded uncertainties.

Test: isobaric coefficient of expansion
Conditions: Liquid, DSC

ClC(Cl)(Cl)Cl [tetrachloromethane]
isobaric coefficient of expansion
Conditions	278.15 K	288.15 K	298.15 K	308.15 K	318.15 K	328.15 K	338.15 K	348.15 K
5000 kPa	0.00114 ± 2.8e-05 1/K	0.00116 ± 2.8e-05 1/K	0.00119 ± 2.9e-05 1/K	0.00121 ± 3e-05 1/K	0.00124 ± 3e-05 1/K	0.00126 ± 3.1e-05 1/K	0.0013 ± 3.2e-05 1/K	0.00132 ± 3.2e-05 1/K
10000 kPa	0.00112 ± 2.7e-05 1/K	0.00113 ± 2.8e-05 1/K	0.00116 ± 2.8e-05 1/K	0.00117 ± 2.9e-05 1/K	0.0012 ± 2.9e-05 1/K	0.00122 ± 3e-05 1/K	0.00125 ± 3e-05 1/K	0.00126 ± 3.1e-05 1/K
15000 kPa	0.00108 ± 2.7e-05 1/K	0.0011 ± 2.7e-05 1/K	0.00113 ± 2.8e-05 1/K	0.00114 ± 2.8e-05 1/K	0.00116 ± 2.9e-05 1/K	0.00118 ± 2.9e-05 1/K	0.00119 ± 2.9e-05 1/K	0.00121 ± 3e-05 1/K
20000 kPa	0.00106 ± 2.6e-05 1/K	0.00108 ± 2.6e-05 1/K	0.00109 ± 2.7e-05 1/K	0.00111 ± 2.7e-05 1/K	0.00113 ± 2.8e-05 1/K	0.00114 ± 2.8e-05 1/K	0.00115 ± 2.8e-05 1/K	0.00116 ± 2.9e-05 1/K
25000 kPa	0.00104 ± 2.6e-05 1/K	0.00105 ± 2.6e-05 1/K	0.00107 ± 2.6e-05 1/K	0.00108 ± 2.6e-05 1/K	0.00109 ± 2.7e-05 1/K	0.0011 ± 2.7e-05 1/K	0.00111 ± 2.7e-05 1/K	0.00112 ± 2.8e-05 1/K
30000 kPa	0.00102 ± 2.5e-05 1/K	0.00103 ± 2.5e-05 1/K	0.00104 ± 2.6e-05 1/K	0.00105 ± 2.6e-05 1/K	0.00106 ± 2.6e-05 1/K	0.00107 ± 2.6e-05 1/K	0.00108 ± 2.6e-05 1/K	0.00109 ± 2.7e-05 1/K
35000 kPa	0.001 ± 2.5e-05 1/K	0.00101 ± 2.5e-05 1/K	0.00102 ± 2.5e-05 1/K	0.00103 ± 2.5e-05 1/K	0.00104 ± 2.5e-05 1/K	0.00104 ± 2.6e-05 1/K	0.00105 ± 2.6e-05 1/K	0.00105 ± 2.6e-05 1/K
40000 kPa	0.000979 ± 2.4e-05 1/K	0.000985 ± 2.4e-05 1/K	0.000996 ± 2.4e-05 1/K	0.00101 ± 2.5e-05 1/K	0.00101 ± 2.5e-05 1/K	0.00101 ± 2.5e-05 1/K	0.00102 ± 2.5e-05 1/K	0.00102 ± 2.5e-05 1/K
45000 kPa	0.000959 ± 2.3e-05 1/K	0.000967 ± 2.4e-05 1/K	0.000978 ± 2.4e-05 1/K	0.000978 ± 2.4e-05 1/K	0.000986 ± 2.4e-05 1/K	0.000986 ± 2.4e-05 1/K	0.000988 ± 2.4e-05 1/K	0.000993 ± 2.4e-05 1/K
50000 kPa	0.000943 ± 2.3e-05 1/K	0.000949 ± 2.3e-05 1/K	0.000955 ± 2.3e-05 1/K	0.000959 ± 2.3e-05 1/K	0.00097 ± 2.4e-05 1/K	0.000965 ± 2.4e-05 1/K	0.000967 ± 2.4e-05 1/K	0.000969 ± 2.4e-05 1/K
55000 kPa	0.000936 ± 2.3e-05 1/K	0.00093 ± 2.3e-05 1/K	0.000935 ± 2.3e-05 1/K	0.00094 ± 2.3e-05 1/K	0.00095 ± 2.3e-05 1/K	0.000946 ± 2.3e-05 1/K	0.000945 ± 2.3e-05 1/K	0.000947 ± 2.3e-05 1/K

CCCCCCCCCCCCCC [tetradecane]
isobaric coefficient of expansion
Conditions	298.15 K	308.15 K	318.15 K	328.15 K	338.15 K	348.15 K
5000 kPa	0.000909 ± 2.2e-05 1/K	0.000913 ± 2.2e-05 1/K	0.000918 ± 2.2e-05 1/K	0.000922 ± 2.3e-05 1/K	0.000931 ± 2.3e-05 1/K	0.000941 ± 2.3e-05 1/K
10000 kPa	0.000881 ± 2.2e-05 1/K	0.000884 ± 2.2e-05 1/K	0.00089 ± 2.2e-05 1/K	0.00089 ± 2.2e-05 1/K	0.000897 ± 2.2e-05 1/K	0.0009 ± 2.2e-05 1/K
15000 kPa	0.00086 ± 2.1e-05 1/K	0.000861 ± 2.1e-05 1/K	0.000863 ± 2.1e-05 1/K	0.000859 ± 2.1e-05 1/K	0.000863 ± 2.1e-05 1/K	0.000867 ± 2.1e-05 1/K
20000 kPa	0.000837 ± 2e-05 1/K	0.000836 ± 2e-05 1/K	0.000837 ± 2e-05 1/K	0.000833 ± 2e-05 1/K	0.000835 ± 2e-05 1/K	0.000839 ± 2.1e-05 1/K
25000 kPa	0.000815 ± 2e-05 1/K	0.000814 ± 2e-05 1/K	0.000815 ± 2e-05 1/K	0.00081 ± 2e-05 1/K	0.00081 ± 2e-05 1/K	0.000812 ± 2e-05 1/K
30000 kPa	0.000798 ± 2e-05 1/K	0.000793 ± 1.9e-05 1/K	0.000791 ± 1.9e-05 1/K	0.000789 ± 1.9e-05 1/K	0.000789 ± 1.9e-05 1/K	0.000789 ± 1.9e-05 1/K
35000 kPa	0.00078 ± 1.9e-05 1/K	0.000777 ± 1.9e-05 1/K	0.000774 ± 1.9e-05 1/K	0.00077 ± 1.9e-05 1/K	0.000768 ± 1.9e-05 1/K	0.000768 ± 1.9e-05 1/K
40000 kPa	0.000764 ± 1.9e-05 1/K	0.000761 ± 1.9e-05 1/K	0.000756 ± 1.9e-05 1/K	0.000753 ± 1.8e-05 1/K	0.000749 ± 1.8e-05 1/K	0.000747 ± 1.8e-05 1/K
45000 kPa	0.00075 ± 1.8e-05 1/K	0.000742 ± 1.8e-05 1/K	0.000738 ± 1.8e-05 1/K	0.000735 ± 1.8e-05 1/K	0.000732 ± 1.8e-05 1/K	0.000726 ± 1.8e-05 1/K
50000 kPa	0.000737 ± 1.8e-05 1/K	0.00073 ± 1.8e-05 1/K	0.000722 ± 1.8e-05 1/K	0.00072 ± 1.8e-05 1/K	0.000718 ± 1.8e-05 1/K	0.000711 ± 1.7e-05 1/K
55000 kPa	0.000725 ± 1.8e-05 1/K	0.000719 ± 1.8e-05 1/K	0.000714 ± 1.7e-05 1/K	0.000709 ± 1.7e-05 1/K	0.000705 ± 1.7e-05 1/K	0.000699 ± 1.7e-05 1/K
